The text below walks through data of US11376264B2, “Use of bromodomain-containing protein 9 antagonists in combination with vitamin D receptor agonists in diabetes treatment” (Salk Institute for Biological Studies, priority 2017, dated 2022).

Molecules are shown by their SMILES. Entries after “also recorded” stand apart in the source; their conditions may differ.

One experiment deals with mouse islets. Briefly: Isolated mouse islets cultured with IL1β ± Cal (RNA-Seq). It is filed as cell-based. The procedure:
Total RNA was isolated from tissue or cell pellets using the RNA mini kit (Qiagen). Sequencing libraries were prepared from 100-500 ng total RNA using the TruSeq RNA Sample Preparation Kit v2 (Illumina) according to the manufacturer's protocol. Briefly, mRNA was purified, fragmented, and used for first-, then second-strand cDNA synthesis followed by adenylation of 3′ ends. Samples were ligated to unique adapters and subjected to PCR amplification. Libraries were then validated using the 2100 BioAnalyzer (Agilent), normalized, and pooled for sequencing. RNA-Seq libraries prepared from two biological replicates for each experimental condition were sequenced on the Illumina HiSeq 2000 using bar-coded multiplexing and a 100 bp read length.
Image analysis and base calling were performed with Illumina CASAVA-1.8.2. This yielded a median of 29.9M usable reads per sample. Short read sequences were mapped to a UCSC mm9 reference sequence using the RNA-seq aligner STAR (Dobin et al., 2013). Known splice junctions from mm9 were supplied to the aligner and de novo junction discovery was also permitted. Differential gene expression analysis, statistical testing and annotation were performed using Cuffdiff 2 (Trapnell et al., 2013). Transcript expression was calculated as gene-level relative abundance in fragments per kilobase of exon model per million mapped fragments and employed correction for transcript abundance bias (Roberts et al., 2011). RNA-Seq results for genes of interest were also explored visually using the UCSC Genome Browser.
Mouse pancreatic islets were isolated as previously described (Yoshihara et al., 2010, Nat. Commun 1:127) with slight modification. Briefly, 0.5 mg/ml collagenase P (Roche REF 1213873001, diluted in HBSS buffer, GIBCO, 14170-112) was injected through the common bile duct, and the perfused pancreas dissected and incubated at 37° C. for 21 min. Digested exocrine cells and intact islets were separated via centrifugation (900×g for 15 min) over Histopaque-1077 (Sigma, H8889), and intact islets were manually selected. […]

The subject of another experiment is Nfkbia (IκBα). In words: Nfkbia expression in IL1β-stressed INS1 cells (qPCR). It is filed as cell-based, rat. On the procedure: Samples were run in triplicate and expression was normalized to the levels of the housekeeping controls Rplp0 (36b4) for human and mouse. Samples were analyzed by qPCR, using SYBR Green dye (Bio-rad). Statistical comparisons were made using Student's t test. Error bars are mean±SEM. Primers used are shown below: INS1 cells were cultured at 37° C. in 5% C02 in air in RPMI-1640 (Sigma Aldrich) supplemented with 10% (v/v) fetal bovine serum, 1% (v/v) Antibiotic-Antimycotic (Gibco) 10 mM HEPES, 2 mM glutamax, 1 mM sodium pyruvate, and 50 μM β-mercaptoethanol (RPMI for INS1 medium). INS1 cells were transfected with Lipofectamine RNAiMAX (Invitrogen) for 24 hr, […] (VDR: L-097753-02-0005, PCAF: L-085879-02-0005, BAF180: L-088113-02-0005, non-targeting pool: D-001810-10-05).

The next experiment deals with human islets. Briefly: Long term ex vivo human islet cultures. Conditions: for insulin secretion: 1 week; for islet survival (cell numbers): 4 weeks. Format: cell-based. The procedure: Mouse pancreatic islets were isolated as previously described (Yoshihara et al., 2010, Nat. Commun 1:127) with slight modification. Briefly, 0.5 mg/ml collagenase P (Roche REF 1213873001, diluted in HBSS buffer, GIBCO, 14170-112) was injected through the common bile duct, and the perfused pancreas dissected and incubated at 37° C. for 21 min. Digested exocrine cells and intact islets were separated via centrifugation (900×g for 15 min) over Histopaque-1077 (Sigma, H8889), and intact islets were manually selected. Human islets were provided by the Integrated Islets Distribution Program (see details below).

The target in a further experiment is T1, VDR-BRD9 interaction (Homo sapiens, UniProt P11473+Q9H8M2).
T1 construct: endogenous BRD9 co-immunoprecipitates with HA-tagged VDR; expressed in transfected cells; host or cells: 293T
T1 sequence (P11473 1-427): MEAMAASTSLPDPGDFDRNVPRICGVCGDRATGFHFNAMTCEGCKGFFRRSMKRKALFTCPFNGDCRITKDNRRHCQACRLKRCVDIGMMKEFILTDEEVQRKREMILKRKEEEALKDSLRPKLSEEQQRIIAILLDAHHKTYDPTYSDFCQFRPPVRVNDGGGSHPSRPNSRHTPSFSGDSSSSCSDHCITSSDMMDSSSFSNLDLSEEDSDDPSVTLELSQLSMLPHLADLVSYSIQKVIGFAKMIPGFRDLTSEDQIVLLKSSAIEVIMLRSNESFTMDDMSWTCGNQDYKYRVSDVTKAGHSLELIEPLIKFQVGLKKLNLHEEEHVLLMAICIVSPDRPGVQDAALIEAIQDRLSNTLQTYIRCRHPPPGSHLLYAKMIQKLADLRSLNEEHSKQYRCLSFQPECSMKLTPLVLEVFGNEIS
T1 sequence (Q9H8M2 1-597): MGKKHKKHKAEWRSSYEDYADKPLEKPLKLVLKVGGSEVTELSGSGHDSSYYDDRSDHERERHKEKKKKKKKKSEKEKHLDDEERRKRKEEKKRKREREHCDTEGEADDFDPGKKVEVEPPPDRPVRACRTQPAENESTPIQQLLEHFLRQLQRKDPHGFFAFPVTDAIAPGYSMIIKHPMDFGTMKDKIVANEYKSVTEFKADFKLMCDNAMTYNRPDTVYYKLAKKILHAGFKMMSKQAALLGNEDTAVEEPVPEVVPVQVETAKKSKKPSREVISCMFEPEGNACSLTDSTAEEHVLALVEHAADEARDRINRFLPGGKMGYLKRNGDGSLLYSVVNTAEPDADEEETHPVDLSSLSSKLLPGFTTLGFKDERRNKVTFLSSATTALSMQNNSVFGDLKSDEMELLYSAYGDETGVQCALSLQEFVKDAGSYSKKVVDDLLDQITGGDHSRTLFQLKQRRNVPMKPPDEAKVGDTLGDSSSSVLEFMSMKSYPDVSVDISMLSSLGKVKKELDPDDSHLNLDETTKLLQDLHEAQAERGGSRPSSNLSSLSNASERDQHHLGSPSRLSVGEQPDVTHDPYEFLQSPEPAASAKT
In words: Co-immunoprecipitation of VDR and BRD9 in 293T cells. It is filed as cell-based. The settings on record: proteomic and Western blot.

Experiment [1] deals with BAF/PBAF complex binding at Nfkbia, Nfkbiz, Camk4. Briefly: ChIP-qPCR of ARID1B and BAF180 at VDR target loci. Format: cell-based, rat. The source says: The experimental procedure for ChIP was as previously described (Barish et al., 2010, Genes Dev 24:2760-5). Briefly, after fixation, nuclei from were isolated, lysed, and sheared with a Diagenode Bioruptor to yield DNA fragment sizes of 200-1,000 bp followed by immunoprecipitation.

Method for VDR-BRD9 interaction: Briefly, cells are lysed using ice-cold lysis buffer (HEPES 20 mM pH8, EDTA 0.2 mM, NaCl 0.3 mM, NP40 0.5%, 15% glycerol) for 15 min, and after centrifuging the supernatant was collected. For HA- or Flag-tagged proteins, immunoprecipitations were performed using HA-magnetic beads (Pierce, P188836), or Flag-magnetic beads (Sigma, M8823) for 1.5 hr at 4° C. For other immunoprecipitations, primary antibodies were incubated with lysates for 2 hr followed by Protein A magnetic beads (Life Technologies, 10001D). After 3 washes with wash buffer (HEPES 10 mM pH8, EDTA 0.2 mM, NaCl 0.3 mM, NP40 0.1%, 15% glycerol), the beads were boiled with NuPage LDS sample buffer and the lysates were stored at −20° C.

Consider `C=C1/C(=C\C=C2/CCC[C@]3(C)[C@@H]([C@H](C)/C=C/[C@@H](O)C4CC4)CC[C@@H]23)C[C@@H](O)C[C@@H]1O` [Cal, calcipotriol], for which, in the experiment with mouse islets (48 or 96 hours), the “IL1β-induced damage / gene expression changes in islets” value is “protected islets from IL1β-induced damage; also recorded: partially rescued”. Also, the “number of genes induced by IL1β and rescued” value in the experiment on mouse islets (96 hours) was 332 genes. In addition, the “number of genes suppressed by IL1β and rescued” value in the experiment on mouse islets (96 hours) is listed as 169 genes. Also, the Nfkbia expression result in the experiment on Nfkbia (IκBα) (30 minutes IL1β exposure) is listed as “increased”; in the experiment with Nfkbia (IκBα) (IL1β stress, after 24 hrs), “not sufficient to induce a significant increase”. For the same molecule, the insulin secretion result with human islets was “increased”; with human islets (listed as Calcipotriol), “Increases”. In addition, the “islet survival (cell numbers)” value is “increased” with human islets and “Increases” in the experiment on human islets (listed as Calcipotriol).

On to `CCn1cc(-c2cccc(C(F)(F)F)c2)c2sc(C(=N)NC3CCS(=O)(=O)CC3)cc2c1=O` [iBRD9], for which the “interaction between VDR and BRD9” value on VDR-BRD9 interaction is “reduced the interaction between VDR and BRD9”. For the same molecule, in experiment [1], the “ARID1B (BAF complex) binding at target gene loci” value was “reduces BAF complex binding” and the “BAF180 (PBAF complex) binding at target gene loci” value is recorded as “increases PBAF complex binding”.
